Among the test systems are 786-0 renal; BT-549 breast; CAKI-1 renal; COLO 205 colon; HCC-2998 colon; HCT-116 colon; HOP-92 NSCLC; HS 578T breast; IGROV1 ovarian; MDA-N; NCI-H226 lung; NCI-H522 lung; OVCAR-8 ovarian; RXF 393 renal; SF-295 CNS; SF-539 CNS; SK-OV-3 ovarian; SR leukemia; T-47D breast.
Common to all, as to test: NCI anticancer screen, dose series, 48 h

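Exposure lasted 48 hours, with cells grown in 96-well plates and compounds tested at five concentrations. TGI marks complete inhibition of growth.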 Where a SMILES comes first, the peptide text is derived from it. [ ]: non-standard residue; d: D form. The star is where a group is joined. ξ: configuration not given here. NMeY = CN[C@@H](Cc1ccc(O)cc1)C(=O)O; Cbz = O=C(OCc1ccccc1)*; ξA = CC(N)C(=O)O

Take `O=S(=O)(O)c1c(Cl)c(Cl)c(O)c2ncccc12`: the TGI in the test with 786-0 renal is 21.1 µM; with BT-549 breast, 67.3 µM; in the test on CAKI-1 renal it was 65.4 µM; in the test with COLO 205 colon it was 31.8 µM; in the test with HCC-2998 colon, 31.4 µM; in the test on HCT-116 colon, 16.6 µM. For the same compound, the TGI in the test with HOP-92 NSCLC was determined as 47.8 µM; in the test with HS 578T breast, 54.4 µM; in the test with IGROV1 ovarian, 16 µM; in the test with MDA-N, 43.6 µM; in the test on NCI-H226 lung it was 64.3 µM; with NCI-H522 lung, 21.4 µM. For the same compound, the TGI in the test on OVCAR-8 ovarian was 51.3 µM; in the test on RXF 393 renal it was 44.5 µM; in the test with SF-295 CNS, 33.2 µM; with SF-539 CNS it was above 56.7 µM; with SK-OV-3 ovarian it was 25.8 µM; in the test on SR leukemia, 27.6 µM. In addition, in the test with T-47D breast, the TGI came out at 22 µM.

Take `COc1ccccc1/C=C1\CCC(Cc2ccccc2)(CN(C)C)C1=O` (stereo not given): the TGI with 786-0 renal was 23.4 µM; with BT-549 breast, 40.5 µM; with CAKI-1 renal, 51.8 µM; in the test on COLO 205 colon, 7.82 µM; with HCC-2998 colon it was 24.3 µM; with HCT-116 colon it was 39.4 µM. Also, the TGI is 66.2 µM in the test on HOP-92 NSCLC; above 100 µM in the test on HS 578T breast; above 41.2 µM in the test on IGROV1 ovarian; 3.12 µM in the test with MDA-N; 80.4 µM in the test on NCI-H226 lung; 2.1 µM with NCI-H522 lung. In addition, the TGI in the test with OVCAR-8 ovarian was 22.9 µM; in the test with RXF 393 renal, 51 µM; in the test on SF-295 CNS, above 63.1 µM; in the test on SF-539 CNS it was 5.89 µM; in the test on SK-OV-3 ovarian, above 42.2 µM; in the test with SR leukemia it was 3.53 µM. The TGI in the test on T-47D breast is above 100 µM.

Regarding `CCOC(=O)/C=C(/C(=O)OCC)n1ccc(=O)n(Cc2cn(CCCCOC(C)=O)nn2)c1=O`, the TGI was above 100 µM with 786-0 renal; above 100 µM in the test with BT-549 breast; 53.6 µM with CAKI-1 renal; above 100 µM in the test with COLO 205 colon; above 100 µM in the test on HCC-2998 colon; above 100 µM with HCT-116 colon. In addition, the TGI with HOP-92 NSCLC is 20.6 µM; in the test on HS 578T breast, above 100 µM; in the test on IGROV1 ovarian, above 100 µM; in the test on MDA-N it was above 100 µM; in the test with NCI-H226 lung, above 100 µM; in the test with NCI-H522 lung, 29.3 µM. Moreover, the TGI with OVCAR-8 ovarian, with RXF 393 renal, in the test with SF-295 CNS, in the test on SF-539 CNS, in the test on SK-OV-3 ovarian and with SR leukemia was above 100 µM each time. The compound also returned a TGI in the test with T-47D breast above 100 µM.

Take `CSC12c3cc(C)n(-c4ccc(I)cc4)c3CC(C)(C)CN1C(=O)C2Oc1ccccc1` (stereo not given): the TGI with 786-0 renal, in the test on BT-549 breast, in the test with CAKI-1 renal, with COLO 205 colon, with HCC-2998 colon and in the test with HCT-116 colon was above 100 µM throughout. Moreover, the TGI in the test on HOP-92 NSCLC, in the test on HS 578T breast, in the test with IGROV1 ovarian, with MDA-N, in the test with NCI-H226 lung and with NCI-H522 lung was above 100 µM throughout. In addition, the TGI with OVCAR-8 ovarian, in the test with RXF 393 renal, in the test with SF-295 CNS, in the test with SF-539 CNS, with SK-OV-3 ovarian and in the test on SR leukemia was above 100 µM throughout. The compound further had a TGI in the test on T-47D breast above 100 µM.

With `COC(C)=NCCC1=CCCCC1`, the TGI with 786-0 renal, in the test with BT-549 breast, in the test with CAKI-1 renal, with COLO 205 colon, with HCC-2998 colon and in the test with HCT-116 colon was above 100 µM in each case. Besides, the TGI with HOP-92 NSCLC, with HS 578T breast, in the test on IGROV1 ovarian, in the test with MDA-N, in the test on NCI-H522 lung and in the test on OVCAR-8 ovarian was above 100 µM in each case. Besides, the TGI with RXF 393 renal, in the test on SF-295 CNS, with SK-OV-3 ovarian, in the test on SR leukemia and in the test on T-47D breast was above 100 µM each time.

In the case of `COc1ccc(OC(=O)N2C/C(=C\c3ccccc3)C(=O)/C(=C/c3ccccc3)C2)cc1`, the TGI was 7.96 µM in the test on 786-0 renal; 4.67 µM in the test with BT-549 breast; 15.7 µM with COLO 205 colon; 8.76 µM with HCC-2998 colon; 1.19 µM in the test on HCT-116 colon; 40.1 µM in the test on HOP-92 NSCLC. Besides, the TGI came to 7.33 µM in the test with HS 578T breast; 16.3 µM in the test with IGROV1 ovarian; 3.47 µM in the test on MDA-N; 30.3 µM in the test with NCI-H226 lung; 5.23 µM with NCI-H522 lung; 7.57 µM in the test with OVCAR-8 ovarian. Moreover, the TGI with RXF 393 renal came out at 8.71 µM; with SF-295 CNS it was 10.1 µM; in the test on SF-539 CNS, 22.5 µM; in the test on SK-OV-3 ovarian it was 24.9 µM; in the test on SR leukemia, 2.64 µM; in the test with T-47D breast, 48.1 µM.

On to `COc1ccc(C[C@@H](C(=O)N[C@@H](C)C(N)=O)N(C)C(=O)[C@@H]2CCCN2C(=O)[C@H](CC(C)C)NC(=O)C(C)NC(=O)OCc2ccccc2)cc1` (stereo not given in full) (Cbz-[ξA]LP[NMeY](Me)A-NH2), for which the TGI with 786-0 renal, in the test on BT-549 breast, in the test with CAKI-1 renal, in the test with COLO 205 colon, in the test with HCC-2998 colon and with HCT-116 colon was above 100 µM throughout. Moreover, the TGI in the test with HOP-92 NSCLC, with HS 578T breast, in the test on IGROV1 ovarian, with MDA-N, in the test with NCI-H226 lung and with NCI-H522 lung was above 100 µM each time. Besides, the TGI in the test with OVCAR-8 ovarian, in the test on RXF 393 renal, in the test on SF-295 CNS, in the test with SF-539 CNS, with SK-OV-3 ovarian and with SR leukemia was above 100 µM each time. In the test on T-47D breast, this compound returned a TGI above 100 µM.

The values are drawn from PubChem BioAssay (NCI).
